According to patent US20240360137A1 (Novartis AG, priority 2023, published 2024):

What was measured:
Assay in all cases: CDKi biochemical assay (TR-FRET, phosphorylation of S780 on RB1 peptide)
[1] = target: CDK2/CyclinE1 (Homo sapiens, UniProt P24941); conditions: CDK2/CyclinE1 100 pM, 1 mM ATP, 60 min at 25° C.
Outline: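 CDK2/CyclinE1 (Avi-tag, 100 pM; CDK2 E. coli-expressed) phosphorylated His-MBP-RB1[773-924] (200 nM) at S780 with 1 mM ATP in HEPES pH 7.5/MgCl2/DTT, 60 min at 25° C. After EDTA quench, TR-FRET detection ran 3 h (Eu anti-p-RB S780, SA-APC). Apparent IC50 came from percent activity versus log concentration.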

[2] = target: CDK1/CyclinB1 (Homo sapiens, UniProt P06493); conditions: CDK1/CyclinB1 10 pM, 1 mM ATP, 60 min at 25° C.
Outline: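 CDK1/CyclinB1 (10 pM, Avi-tagged, insect-cell expressed) phosphorylated S780 of His-MBP-RB1[773-924] (200 nM) with 1 mM ATP in HEPES pH 7.5, 10 mM MgCl2, 1 mM DTT, 60 min at 25 °C. After EDTA quench, TR-FRET detection (Eu anti-pRB S780, SA-APC) for 3 h; apparent IC50 from percent activity versus log concentration.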

[3] = target: CDK4/cyclinD1 (Homo sapiens, UniProt P11802); conditions: CDK4/cyclinD1 20 pM, 1 mM ATP, 60 min at 25° C.
Outline: (§1)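 Avi-tagged, biotinylated CDK4/cyclinD1 (20 pM) or CDK6/cyclinD3 (10 pM) phosphorylates 200 nM His-MBP-RB1[773-924] at S780 with 1 mM ATP in HEPES pH 7.5/MgCl2, 60 min, 25° C. After EDTA quench, Eu anti-pRB(S780)/SA-APC TR-FRET is read after 3 h. Apparent IC50 comes from % activity versus log concentration.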

[4] = target: CDK6/cyclinD3 (Homo sapiens, UniProt Q00534); conditions: CDK6/cyclinD3 10 pM, 1 mM ATP, 60 min at 25° C.
Outline: as §1

Compound | IC50 [1] [nM] | IC50 [2] [nM] | IC50 [3] [nM] | IC50 [4] [nM]
COCC(F)(F)COc1n[nH]cc1Nc1ncc2c(n1)N([C@@H]1CCC[C@@H](O)C1)C(=O)C21CC1 [Example 44, 2′-((3-(2,2-difluoro-3-methoxypropoxy)-1H-pyrazol-4-yl)amino)-7′-((1R,3R)-3-hydroxycyclohexyl)spiro[cyclopropane-1,5′-pyrrolo[2,3-d]pyrimidin]-6′(7′H)-one] | 15 | 1810 | 4410 | 7130
O=C1N([C@@H]2CCC[C@@H](O)C2)c2nc(Nc3c[nH]nc3OCC3(F)CC3)ncc2C12CC2 [Example 45, 2′-((3-((1-fluorocyclopropyl)methoxy)-1H-pyrazol-4-yl)amino)-7′-((1R,3R)-3-hydroxycyclohexyl)spiro[cyclopropane-1,5′-pyrrolo[2,3-d]pyrimidin]-6′(7′H)-one] | 11 | 770 | 1230 | 3500
O=C1N([C@@H]2CCC[C@@H](O)C2)c2nc(Nc3c[nH]nc3OC3CN(CC(F)(F)F)C3)ncc2C12CC2 [Example 46, 7′-((1R,3R)-3-hydroxycyclohexyl)-2′-((3-((1-(2,2,2-trifluoroethyl)azetidin-3-yl)oxy)-1H-pyrazol-4-yl)amino)spiro[cyclopropane-1,5′-pyrrolo[2,3-d]pyrimidin]-6′(7′H)-one] | 109 | ≥ 10000 | ≥ 10000 | ≥ 10000
O=C1N([C@@H]2CCC[C@@H](O)C2)c2nc(Nc3c[nH]nc3-c3cnn4c3CCC4)ncc2C12CC2 [Example 47, 2′-((3-(5,6-dihydro-4H-pyrrolo[1,2-b]pyrazol-3-yl)-1H-pyrazol-4-yl)amino)-7′-((1R,3R)-3-hydroxycyclohexyl)spiro[cyclopropane-1,5′-pyrrolo[2,3-d]pyrimidin]-6′(7′H)-one] | 27 | ≥ 10000 | 6380 | 7550
O=C1N([C@@H]2CCC[C@@H](O)C2)c2nc(Nc3c[nH]nc3OCC3(F)COC3)ncc2C12CC2 [Example 48, 2′-((3-((3-fluorooxetan-3-yl)methoxy)-1H-pyrazol-4-yl)amino)-7′-((1R,3R)-3-hydroxycyclohexyl)spiro[cyclopropane-1,5′-pyrrolo[2,3-d]pyrimidin]-6′(7′H)-one] | 22 | 3250 | 1540 | ≥ 10000

More lines, now with the values ahead:

IC50 [1] [nM] | IC50 [2] [nM] | IC50 [3] [nM] | IC50 [4] [nM] | Compound
15 | 2640 | 9770 | ≥ 10000 | [2H]C([2H])([2H])Oc1n[nH]cc1Nc1ncc2c(n1)N([C@@H]1CCC[C@@H](O)C1)C(=O)C21CC1 [Example 49, 7′-((1R,3R)-3-hydroxycyclohexyl)-2′-((3-(methoxy-d3)-1H-pyrazol-4-yl)amino)spiro[cyclopropane-1,5′-pyrrolo[2,3-d]pyrimidin]-6′(7′H)-one]
125 | ≥ 10000 | ≥ 10000 | ≥ 10000 | CN1C[C@@H](F)[C@H](Oc2n[nH]cc2Nc2ncc3c(n2)N([C@@H]2CCC[C@@H](O)C2)C(=O)C32CC2)C1 [Example 50, 2′-((3-(((3R,4R)-4-fluoro-1-methylpyrrolidin-3-yl)oxy)-1H-pyrazol-4-yl)amino)-7′-((1R,3R)-3-hydroxycyclohexyl)spiro[cyclopropane-1,5′-pyrrolo[2,3-d]pyrimidin]-6′(7′H)-one]
119 | ≥ 10000 | ≥ 10000 | ≥ 10000 | CN1C[C@H](Oc2n[nH]cc2Nc2ncc3c(n2)N([C@@H]2CCC[C@@H](O)C2)C(=O)C32CC2)[C@@H](F)C1 [Example 51, 2′-((3-(((3S,4S)-4-fluoro-1-methylpyrrolidin-3-yl)oxy)-1H-pyrazol-4-yl)amino)-7′-((1R,3R)-3-hydroxycyclohexyl)spiro[cyclopropane-1,5′-pyrrolo[2,3-d]pyrimidin]-6′(7′H)-one]
